These results are taken from ChEMBL document CHEMBL5096151, “Phytocannabinoid Pharmacology: Medicinal Properties of Cannabis sativa Constituents Aside from the "Big Two"” (J Nat Prod, 2021).

The target in assay [1] is Transient receptor potential cation channel subfamily V member 1 (Homo sapiens, UniProt Q8NER1). Put plainly: Agonist activity at ionomycin-stimulated TRPV1 (unknown origin) activation assessed as efficacy relative to control.
The target of assay [2] is T1, Transient receptor potential cation channel subfamily V member 2 (Homo sapiens) (UniProt Q9Y5S1).
T1 sequence (whole entry): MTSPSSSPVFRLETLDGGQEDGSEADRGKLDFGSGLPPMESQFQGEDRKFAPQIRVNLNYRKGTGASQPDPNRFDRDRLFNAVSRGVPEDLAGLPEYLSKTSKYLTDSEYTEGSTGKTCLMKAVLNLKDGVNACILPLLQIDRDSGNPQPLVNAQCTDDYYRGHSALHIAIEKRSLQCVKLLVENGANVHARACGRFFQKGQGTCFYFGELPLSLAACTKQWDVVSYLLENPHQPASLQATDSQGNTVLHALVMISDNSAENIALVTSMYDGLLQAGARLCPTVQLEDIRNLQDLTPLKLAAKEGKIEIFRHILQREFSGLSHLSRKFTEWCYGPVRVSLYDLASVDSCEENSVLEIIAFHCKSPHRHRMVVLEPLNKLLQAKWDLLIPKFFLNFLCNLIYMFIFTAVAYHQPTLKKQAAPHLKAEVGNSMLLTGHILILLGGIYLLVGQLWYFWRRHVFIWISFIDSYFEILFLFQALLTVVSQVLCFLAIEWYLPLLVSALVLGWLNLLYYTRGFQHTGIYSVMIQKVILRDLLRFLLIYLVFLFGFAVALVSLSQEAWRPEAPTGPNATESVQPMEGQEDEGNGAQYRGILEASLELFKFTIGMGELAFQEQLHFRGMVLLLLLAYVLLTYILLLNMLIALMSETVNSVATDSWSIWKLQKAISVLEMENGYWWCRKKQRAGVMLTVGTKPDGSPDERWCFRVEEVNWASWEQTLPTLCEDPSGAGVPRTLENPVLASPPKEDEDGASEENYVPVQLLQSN
Put plainly: Agonist activity at ionomycin-stimulated TRPV2 (unknown origin) activation assessed as efficacy relative to control. Particulars: filed as agonist.

Assay [3] has as its target T2, Transient receptor potential cation channel subfamily V member 2 (Homo sapiens, UniProt Q9Y5S1).
T2 sequence (Q9Y5S1 whole entry): T1 sequence (whole entry)
Put plainly: Agonist activity at ionomycin-stimulated TRPV2 (unknown origin) channel desensitization in presence of lysophosphatidylcholine.

For assay [4], the target named is T3, Transient receptor potential cation channel subfamily V member 3 (Homo sapiens, UniProt Q8NET8).
T3 sequence (Q8NET8 whole entry): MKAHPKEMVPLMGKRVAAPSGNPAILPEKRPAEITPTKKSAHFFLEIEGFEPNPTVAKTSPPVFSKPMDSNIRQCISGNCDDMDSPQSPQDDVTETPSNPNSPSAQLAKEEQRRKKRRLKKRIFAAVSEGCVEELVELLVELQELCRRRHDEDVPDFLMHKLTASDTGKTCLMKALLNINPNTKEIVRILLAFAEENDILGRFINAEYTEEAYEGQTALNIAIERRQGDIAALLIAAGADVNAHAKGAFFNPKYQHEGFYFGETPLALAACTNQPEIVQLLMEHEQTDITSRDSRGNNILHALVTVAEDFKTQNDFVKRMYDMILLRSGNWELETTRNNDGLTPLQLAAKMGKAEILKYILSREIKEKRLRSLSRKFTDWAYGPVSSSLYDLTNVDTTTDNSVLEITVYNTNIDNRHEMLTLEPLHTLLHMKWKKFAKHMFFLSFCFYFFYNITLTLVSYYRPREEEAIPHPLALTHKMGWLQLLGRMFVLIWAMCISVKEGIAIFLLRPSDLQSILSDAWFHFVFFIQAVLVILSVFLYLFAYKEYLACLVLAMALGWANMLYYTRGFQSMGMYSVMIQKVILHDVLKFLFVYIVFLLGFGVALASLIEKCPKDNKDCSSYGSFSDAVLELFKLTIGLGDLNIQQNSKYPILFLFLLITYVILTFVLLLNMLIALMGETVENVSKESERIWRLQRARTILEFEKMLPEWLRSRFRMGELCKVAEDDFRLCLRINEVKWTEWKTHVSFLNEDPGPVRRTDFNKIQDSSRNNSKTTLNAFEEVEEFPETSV
Kind of assay: Agonist activity at ionomycin-stimulated TRPV3 (unknown origin) activation.

In assay [5] the target is T4, Transient receptor potential cation channel subfamily V member 4 (Homo sapiens, UniProt Q9HBA0). Kind of assay: Agonist activity at ionomycin-stimulated TRPV4 (unknown origin) activation.
T4 sequence (Q9HBA0 whole entry): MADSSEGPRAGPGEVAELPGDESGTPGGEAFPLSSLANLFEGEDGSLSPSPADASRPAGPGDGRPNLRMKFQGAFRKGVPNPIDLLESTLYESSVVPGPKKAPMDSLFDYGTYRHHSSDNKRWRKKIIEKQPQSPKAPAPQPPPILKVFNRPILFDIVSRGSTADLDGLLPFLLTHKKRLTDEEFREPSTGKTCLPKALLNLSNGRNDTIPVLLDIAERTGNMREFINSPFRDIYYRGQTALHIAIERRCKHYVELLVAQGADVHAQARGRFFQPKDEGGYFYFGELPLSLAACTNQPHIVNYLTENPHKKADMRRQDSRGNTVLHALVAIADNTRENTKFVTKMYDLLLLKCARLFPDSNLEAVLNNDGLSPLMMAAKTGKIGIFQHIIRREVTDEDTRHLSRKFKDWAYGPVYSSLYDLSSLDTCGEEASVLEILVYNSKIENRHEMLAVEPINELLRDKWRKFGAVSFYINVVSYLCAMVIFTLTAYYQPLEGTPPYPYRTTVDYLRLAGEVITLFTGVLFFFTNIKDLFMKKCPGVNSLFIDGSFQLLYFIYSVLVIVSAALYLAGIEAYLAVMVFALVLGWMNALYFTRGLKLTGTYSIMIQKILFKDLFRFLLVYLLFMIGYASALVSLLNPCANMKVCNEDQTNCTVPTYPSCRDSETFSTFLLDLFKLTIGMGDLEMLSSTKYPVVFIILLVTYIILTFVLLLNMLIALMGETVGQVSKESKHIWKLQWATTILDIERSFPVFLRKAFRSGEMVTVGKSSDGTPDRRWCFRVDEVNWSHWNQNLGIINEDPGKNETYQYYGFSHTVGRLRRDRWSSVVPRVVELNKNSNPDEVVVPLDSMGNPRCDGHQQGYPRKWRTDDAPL
The target in assay [6] is T4, Transient receptor potential cation channel subfamily V member 4. Put plainly: Agonist activity at ionomycin-stimulated TRPV4 (unknown origin) activation assessed as efficacy relative to control.
For assay [7] the target is unchanged. Kind of assay: Agonist activity at ionomycin-stimulated TRPV4 (unknown origin) channel desensitization in presence of 4alphaPDD.
Assay [8] deals with Transient receptor potential cation channel subfamily A member 1 (Homo sapiens, UniProt O75762). Kind of assay: Agonist activity at TRPA1 (unknown origin) activation.
Assay [9] deals with T5, G-protein coupled receptor 6 (Homo sapiens, UniProt P46095). Put plainly: Binding affinity to human GPR6 expressed in HEK293 cells assessed as reduction in cAMP level incubated for 1 hr by HTRF assay. It counts as cell-based. (cAMP levels reflect the balance of adenylyl cyclase and phosphodiesterase activity.)
T5 sequence (P46095 whole entry): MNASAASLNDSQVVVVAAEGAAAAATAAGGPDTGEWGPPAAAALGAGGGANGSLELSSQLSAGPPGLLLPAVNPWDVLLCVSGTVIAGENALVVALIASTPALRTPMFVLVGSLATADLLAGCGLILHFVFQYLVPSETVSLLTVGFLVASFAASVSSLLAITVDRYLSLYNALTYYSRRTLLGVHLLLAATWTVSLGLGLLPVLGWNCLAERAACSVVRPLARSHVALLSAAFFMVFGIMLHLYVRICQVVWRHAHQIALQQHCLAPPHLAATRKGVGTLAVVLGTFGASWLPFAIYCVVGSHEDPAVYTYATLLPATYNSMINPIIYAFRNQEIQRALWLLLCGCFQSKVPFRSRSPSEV
Assay [10] addresses T5, G-protein coupled receptor 6. Put plainly: Binding affinity to human GPR6 expressed in HEK293 cells assessed as reduction in cAMP level by measuring efficacy incubated for 1 hr by HTRF assay relative to control. It counts as cell-based.
The target of assay [11] is Transient receptor potential cation channel subfamily M member 8 (Homo sapiens, UniProt Q7Z2W7). Put plainly: Antagonist activity at TRPM8 (unknown origin) desensitization in presence of icilin.
Sequence of Transient receptor potential cation channel subfamily M member 8 (Q7Z2W7 whole entry): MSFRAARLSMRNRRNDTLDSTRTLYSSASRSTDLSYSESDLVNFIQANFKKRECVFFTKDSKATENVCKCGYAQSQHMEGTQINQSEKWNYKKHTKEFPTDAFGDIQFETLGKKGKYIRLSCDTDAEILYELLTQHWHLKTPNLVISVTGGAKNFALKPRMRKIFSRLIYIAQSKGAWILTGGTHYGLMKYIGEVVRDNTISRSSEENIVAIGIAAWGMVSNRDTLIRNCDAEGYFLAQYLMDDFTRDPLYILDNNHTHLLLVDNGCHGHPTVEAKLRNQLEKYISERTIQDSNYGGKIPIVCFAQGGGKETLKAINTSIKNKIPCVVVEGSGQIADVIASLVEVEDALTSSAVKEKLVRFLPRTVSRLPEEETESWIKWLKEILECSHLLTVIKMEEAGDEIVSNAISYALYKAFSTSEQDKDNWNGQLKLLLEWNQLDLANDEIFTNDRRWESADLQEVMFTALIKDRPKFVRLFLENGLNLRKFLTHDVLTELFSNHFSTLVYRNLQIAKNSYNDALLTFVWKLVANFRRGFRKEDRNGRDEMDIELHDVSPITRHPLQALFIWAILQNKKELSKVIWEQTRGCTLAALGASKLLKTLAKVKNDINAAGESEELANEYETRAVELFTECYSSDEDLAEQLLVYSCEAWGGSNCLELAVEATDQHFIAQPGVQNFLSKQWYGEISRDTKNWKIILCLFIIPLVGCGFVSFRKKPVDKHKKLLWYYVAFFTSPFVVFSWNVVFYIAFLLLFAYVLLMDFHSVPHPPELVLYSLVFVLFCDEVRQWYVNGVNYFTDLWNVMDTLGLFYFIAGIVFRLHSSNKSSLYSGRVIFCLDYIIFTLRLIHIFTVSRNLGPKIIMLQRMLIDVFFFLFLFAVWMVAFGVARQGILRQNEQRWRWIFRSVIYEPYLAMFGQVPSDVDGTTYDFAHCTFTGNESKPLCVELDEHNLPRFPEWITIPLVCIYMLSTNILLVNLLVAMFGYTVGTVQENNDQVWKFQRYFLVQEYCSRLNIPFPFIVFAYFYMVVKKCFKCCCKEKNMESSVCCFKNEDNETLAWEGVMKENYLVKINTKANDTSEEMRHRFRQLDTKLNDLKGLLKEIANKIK
Assay [12] has as its target Cytochrome P450 1A1 (Homo sapiens, UniProt P04798). Kind of assay: Inhibition of human recombinant CYP1A1 preincubated with NADPH for 20 mins and measured after 30 min by Lineweaver-burk plots analysis. It counts as ADME.
Assay [13] addresses T6, Cytochrome P450 2B6 (Homo sapiens, UniProt P20813).
T6 sequence (P20813 whole entry): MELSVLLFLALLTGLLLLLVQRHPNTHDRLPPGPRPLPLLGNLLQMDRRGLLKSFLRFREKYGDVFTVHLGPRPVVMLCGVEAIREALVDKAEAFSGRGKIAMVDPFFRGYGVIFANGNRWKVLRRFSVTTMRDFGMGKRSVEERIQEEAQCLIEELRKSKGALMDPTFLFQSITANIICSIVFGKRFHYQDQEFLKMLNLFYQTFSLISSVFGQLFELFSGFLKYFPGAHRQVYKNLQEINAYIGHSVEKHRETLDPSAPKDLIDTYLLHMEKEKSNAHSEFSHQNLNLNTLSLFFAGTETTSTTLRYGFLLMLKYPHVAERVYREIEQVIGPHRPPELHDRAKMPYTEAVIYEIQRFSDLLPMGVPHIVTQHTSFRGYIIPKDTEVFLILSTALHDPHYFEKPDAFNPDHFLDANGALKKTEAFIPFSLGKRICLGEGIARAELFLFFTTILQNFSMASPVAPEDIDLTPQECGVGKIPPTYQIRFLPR
Put plainly: Mixed inhibition of recombinant CYP2B6 (unknown origin) using coumarin as substrate in presence of NADPH-generating system. It counts as ADME.

Assay [14] concerns the target T7, Cytochrome P450 2D6 (Homo sapiens, UniProt P10635). Put plainly: Inhibition of CYP2D6 in human liver microsomes in presence of NADPH-generating system incubated for 20 mins. The class given is ADME, Microsome.
In assay [15] the target is T7, Cytochrome P450 2D6. Kind of assay: Inhibition of CYP2D6 in human liver microsomes by measuring inhibition constant in presence of NADPH-generating system incubated for 20 mins. The class given is ADME, Microsome. In general terms: Liver microsomes are a subcellular fraction often used to study metabolism.

T7 sequence (P10635 whole entry): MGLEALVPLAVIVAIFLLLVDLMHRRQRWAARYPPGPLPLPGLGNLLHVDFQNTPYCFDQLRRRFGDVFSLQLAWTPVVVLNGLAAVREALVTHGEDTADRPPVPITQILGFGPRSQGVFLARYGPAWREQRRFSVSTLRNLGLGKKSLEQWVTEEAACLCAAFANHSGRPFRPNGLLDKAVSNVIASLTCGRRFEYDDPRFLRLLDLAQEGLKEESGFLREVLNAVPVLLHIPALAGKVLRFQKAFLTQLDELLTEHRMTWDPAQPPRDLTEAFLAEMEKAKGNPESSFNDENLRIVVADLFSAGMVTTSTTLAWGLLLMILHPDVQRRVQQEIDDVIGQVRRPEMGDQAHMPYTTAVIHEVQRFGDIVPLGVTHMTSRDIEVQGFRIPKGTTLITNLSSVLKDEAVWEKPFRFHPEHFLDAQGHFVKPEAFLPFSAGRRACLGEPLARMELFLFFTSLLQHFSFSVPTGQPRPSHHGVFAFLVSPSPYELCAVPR
Sequence of Transient receptor potential cation channel subfamily V member 1 (Q8NER1 whole entry): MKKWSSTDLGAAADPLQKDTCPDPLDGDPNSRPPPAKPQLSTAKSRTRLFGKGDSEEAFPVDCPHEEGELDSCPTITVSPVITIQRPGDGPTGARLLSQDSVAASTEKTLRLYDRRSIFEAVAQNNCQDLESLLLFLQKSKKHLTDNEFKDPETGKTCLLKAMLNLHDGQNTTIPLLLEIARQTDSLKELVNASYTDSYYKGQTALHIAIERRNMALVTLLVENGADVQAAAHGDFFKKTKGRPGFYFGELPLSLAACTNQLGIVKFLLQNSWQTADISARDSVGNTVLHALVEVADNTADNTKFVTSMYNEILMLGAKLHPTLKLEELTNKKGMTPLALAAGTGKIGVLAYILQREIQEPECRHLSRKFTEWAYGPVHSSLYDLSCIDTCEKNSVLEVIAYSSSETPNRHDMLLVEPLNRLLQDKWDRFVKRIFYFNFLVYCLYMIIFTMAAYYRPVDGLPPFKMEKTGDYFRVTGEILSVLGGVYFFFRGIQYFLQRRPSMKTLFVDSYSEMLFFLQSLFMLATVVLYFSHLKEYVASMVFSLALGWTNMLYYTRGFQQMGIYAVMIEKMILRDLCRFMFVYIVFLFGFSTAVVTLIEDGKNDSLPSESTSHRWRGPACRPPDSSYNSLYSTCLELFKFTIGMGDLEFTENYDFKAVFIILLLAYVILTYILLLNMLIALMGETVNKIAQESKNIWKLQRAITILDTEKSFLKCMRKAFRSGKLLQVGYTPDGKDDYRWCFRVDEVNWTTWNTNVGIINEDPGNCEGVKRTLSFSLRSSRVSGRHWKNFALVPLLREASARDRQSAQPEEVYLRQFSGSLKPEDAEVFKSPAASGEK
Sequence of Cytochrome P450 1A1 (P04798 whole entry): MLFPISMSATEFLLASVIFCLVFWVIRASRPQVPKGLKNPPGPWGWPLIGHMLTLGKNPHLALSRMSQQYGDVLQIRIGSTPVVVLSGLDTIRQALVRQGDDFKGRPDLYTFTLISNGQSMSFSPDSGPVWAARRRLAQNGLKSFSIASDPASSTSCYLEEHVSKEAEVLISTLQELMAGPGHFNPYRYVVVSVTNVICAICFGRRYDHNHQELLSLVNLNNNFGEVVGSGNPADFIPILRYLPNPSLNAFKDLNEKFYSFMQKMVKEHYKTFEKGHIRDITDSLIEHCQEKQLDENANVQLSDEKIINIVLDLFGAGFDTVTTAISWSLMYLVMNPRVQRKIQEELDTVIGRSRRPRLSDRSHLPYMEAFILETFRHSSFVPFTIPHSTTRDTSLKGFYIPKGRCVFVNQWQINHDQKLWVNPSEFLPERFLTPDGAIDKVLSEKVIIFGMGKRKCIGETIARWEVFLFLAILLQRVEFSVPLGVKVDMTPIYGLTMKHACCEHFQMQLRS

What is called IC50 is the concentration at which inhibition is half-maximal. Usually EC50 stands for the concentration at which the effect is half-maximal. Usually Ki stands for the equilibrium dissociation constant of an inhibitor or competing ligand from its target. In the case of `C=C(C)[C@@H]1CCC(C)=C[C@H]1c1c(O)cc(CCC)cc1O` [CANNABIDIVARIN], the Efficacy in assay [1] was 21%; in assay [2] it was 50%; in assay [6], 30%; in [10] it was 90%. Moreover, the 50% inhibitory concentration (IC50) came to 31 µM in assay [3]; 2.9 µM in assay [7]; 0.9 µM in [11]; 7.4 µM in assay [13]; 10.2 µM in assay [14]. Besides, the EC50 in assay [4] was 1.7 µM; in [5] it was 0.9 µM; in [8] it was 0.42 µM; in [9], 2.4 µM. Further, the inhibition constant (Ki) is 1.6 µM in assay [12] and 5.8 µM in assay [15].
